In US20160237491A1, “METHODS FOR TREATING HCV” (AbbVie Inc., priority 2013, published 2016):

Tested on: HCV
Assay: Viral load in treatment-naïve patients on Compound 1 and ritonavir for 3 days, then added peginterferon and ribavirin, grouped by IL28B PM02 methylation
Format: in vivo, human
Settings: FIG. 3
Method: Twenty-one (21) treatment-naïve patients were included in the study. The patients received Compound 1 and ritonavir for three days followed by the addition of peginterferon and ribavirin for a total of 12 weeks of combination treatment. DNA samples obtained prior to the initiation of treatment were analyzed for methylation in a CpG island in the IL28B promoter corresponding to SEQ ID NO:2 (PM02). Subjects were grouped based on methylation level of PM02. Eleven (11) subjects had methylation values below 45% (diamonds). Ten (10) subjects had methylation values above 45% (squares). Viral load was assessed on Day 1 (“D1”), Day 2 (“D2”), Day 3 (“D3”), Day 4 (“D4”), Day 5 (“D5”), and Day 10 (“D10”) of treatment.

Cc1cnc(C(=O)N[C@H]2CCCCC/C=C\[C@@H]3C[C@@]3(C(=O)NS(=O)(=O)C3CC3)NC(=O)[C@@H]3C[C@@H](Oc4nc5ccccc5c5ccccc45)CN3C2=O)cn1 [Compound 1, (2R,6S,13aS,14aR,16aS,Z)—N-(cyclopropylsulfonyl)-6-(5-methylpyrazine-2-carboxamido)-5,16-dioxo-2-(phenanthridin-6-yloxy)-1,2,3,5,6,7,8,9,10,11,13a,14,14a,15,16,16a-hexadecahydrocyclopropa[e]pyrrolo[1,2-a][1,4]diazacyclopentadecine-14a-carboxamide]
reduction in viral load (after 10 days of treatment, Compound 1 + ritonavir 3 days, then peginterferon and ribavirin added, both groups (PM02 methylation below 45% n=11, above 45% n=10)): dramatic reduction in viral load | effect of PM02 methylation status on response (treatment-naïve patients, 10 days of treatment): does not affect response
